The nature of this series: in vitro. As to conditions: human, hek293t cells.
The term viability denotes a read-out of living cells in per cent, often relative to untreated cells. Consider `Cc1nn(C)c(C)c1C(NC(=O)CCl)C(F)(F)F` (centres unmarked) [5-M18, 2-chloro-N-[2,2,2-trifluoro-1-(1,3,5-trimethyl-1H-pyrazol-4-yl)ethyl]acetamide], for which the viability at 48 h, 25 µM is 1.44%.

Consider `N#CC(=Cc1ccc(-c2ccccc2Cl)o1)C(=O)N1CCCCC1` [8-F20, 3-[5-(2-chlorophenyl)furan-2-yl]-2-(piperidine-1-carbonyl)prop-2-enenitrile], for which the viability at 48 h, 25 µM is 66.6%. For the compound `C=CC(=O)NCc1ccc(C(C)(C)C)[nH]c1=O` [3-P08, N-[(6-tert-butyl-2-oxo-1,2-dihydropyridin-3-yl)methyl]prop-2-enamide], the viability at 48 h, 25 µM stood at 76.4%.

For `C=CC(=O)NCc1ccccc1S(=O)(=O)NC(C)(C)C` [1-J03, N-{[2-(tert-butylsulfamoyl)phenyl]methyl}prop-2-enamide], the viability at 48 h, 25 µM came out at 160%. As for `CCN(Cc1ccc(C(F)(F)F)cc1)C(=O)CCl` [7-H20, 2-chloro-N-ethyl-N-{[4-(trifluoromethyl)phenyl]methyl}acetamide], the viability at 48 h, 25 µM is 0.708%. For the compound `C=CC(=O)N1CCC(C(=O)Nc2cccc(-c3n[nH]c(C)n3)c2)CC1` [2-J09, N-[3-(5-methyl-1H-1,2,4-triazol-3-yl)phenyl]-1-(prop-2-enoyl)piperidine-4-carboxamide], the viability at 48 h, 25 µM was 58.8%. The value for `Cc1cc(CN(C(=O)CCl)C2CCCC2)c2ccccc2n1` [7-B20, 2-chloro-N-cyclopentyl-N-[(2-methylquinolin-4-yl)methyl]acetamide] was 0.493%.

Take `O=C(CCl)NC1CN(c2ccc(C(F)(F)F)cc2)C1` [7-J06, 2-chloro-N-{1-[4-(trifluoromethyl)phenyl]azetidin-3-yl}acetamide]: the viability at 48 h, 25 µM came out at 0.892%. As for `Cc1c(Cl)cccc1N1C(=O)C=CC1=O` [10-B17, 1-(3-chloro-2-methylphenyl)-2,5-dihydro-1H-pyrrole-2,5-dione], the viability at 48 h, 25 µM is 130%.

As for `CCN(C(=O)CCl)c1cccc2ccccc12` [5-B08, 2-chloro-N-ethyl-N-(naphthalen-1-yl)acetamide], the viability at 48 h, 25 µM stood at 0.156%. The value for `CC(Cl)C(=O)NC1(c2noc(C(F)F)n2)CCC1` (centres unmarked) [6-B15, 2-chloro-N-{1-[5-(difluoromethyl)-1,2,4-oxadiazol-3-yl]cyclobutyl}propanamide] was 91.8%; that for `CC(Cl)C(=O)N(C)C1CCS(=O)(=O)CC1` (centres unmarked) [6-J21, 2-chloro-N-(1,1-dioxo-1lambda6-thian-4-yl)-N-methylpropanamide] was 99.1%; that for `Cc1cccc(-n2c(C)cc(C(=O)CCl)c2C)c1` [10-A22, 2-chloro-1-[2,5-dimethyl-1-(3-methylphenyl)-1H-pyrrol-3-yl]ethan-1-one] was 0.013%.

Consider `C=CC(=O)N1CCS(=O)(=O)N2CCCC12` (centres unmarked) [3-H18, 1-(prop-2-enoyl)-hexahydro-1H-4lambda6-pyrrolo[1,2-b][1,2,4]thiadiazine-4,4-dione], for which the viability at 48 h, 25 µM came out at 93.3%. The value for `CCN(CC(=O)NC1CCS(=O)(=O)C1)C(=O)CCl` (centres unmarked) [4-I19, 2-chloro-N-{[(1,1-dioxo-1lambda6-thiolan-3-yl)carbamoyl]methyl}-N-ethylacetamide] was 1.33%. Next, `CS(=O)(=O)NCCc1ccc(C(=O)CCl)cc1` [10-D06, N-{2-[4-(2-chloroacetyl)phenyl]ethyl}methanesulfonamide]: 18.3%. The value for `C=CC(=O)N(C)CC(=O)N1CCOC(c2ccccc2Cl)C1` (centres unmarked) [2-J04, N-{2-[2-(2-chlorophenyl)morpholin-4-yl]-2-oxoethyl}-N-methylprop-2-enamide] was 72.1%; that for `O=C(CCl)NCCc1ccn(C2CCCC2)n1` [7-L20, 2-chloro-N-[2-(1-cyclopentyl-1H-pyrazol-3-yl)ethyl]acetamide] was 38.7%. Consider `C=CC(=O)Nc1ccnc(OC2CCCCC2)c1` [2-A04, N-[2-(cyclohexyloxy)pyridin-4-yl]prop-2-enamide], for which the viability at 48 h, 25 µM turned out to be 0.76%. Next, `C=CC(=O)NCc1c(Cl)c(C(F)(F)F)nn1C` [2-J07, N-{[4-chloro-1-methyl-3-(trifluoromethyl)-1H-pyrazol-5-yl]methyl}prop-2-enamide]: 72.8%; `COc1ccccc1CN(C)C(=O)CCl` [6-C09, 2-chloro-N-[(2-methoxyphenyl)methyl]-N-methylacetamide]: 1.06%; `C=CC(=O)N(Cc1cccc2ccoc12)C1CCSCC1` [1-D04, N-[(1-benzofuran-7-yl)methyl]-N-(thian-4-yl)prop-2-enamide]: 70.4%. For `CCc1cccc(CC)c1NC(=O)C(C#N)=Cc1ccc(C)o1` [8-P11, 2-cyano-N-(2,6-diethylphenyl)-3-(5-methylfuran-2-yl)prop-2-enamide], the viability at 48 h, 25 µM is 108%.

For `C=CC(=O)NCC1(c2ccccc2)CC1(F)F` (centres unmarked) [2-O20, N-[(2,2-difluoro-1-phenylcyclopropyl)methyl]prop-2-enamide], the viability at 48 h, 25 µM stood at 113%. Next, `O=C(CCl)NCCCC(=O)N1CCCC1` [7-N08, 2-chloro-N-[4-oxo-4-(pyrrolidin-1-yl)butyl]acetamide]: 93.6%; `CCN(CC)S(=O)(=O)c1ccc(Cl)c(NC(=O)CCl)c1` [5-J12, 2-chloro-N-[2-chloro-5-(diethylsulfamoyl)phenyl]acetamide]: 0.662%; `C=CC(=O)NCCc1nc(-c2ccccc2)nn1C` [2-M12, N-[2-(1-methyl-3-phenyl-1H-1,2,4-triazol-5-yl)ethyl]prop-2-enamide]: 87.7%. Next, `Cc1c(C=C(C#N)C(=O)Nc2cnc3ccccc3c2)cc(C#N)n1C` [9-N15, 2-cyano-3-(5-cyano-1,2-dimethyl-1H-pyrrol-3-yl)-N-(quinolin-3-yl)prop-2-enamide]: 111%; `C=CC(=O)NC(c1nnc2n1CCC2)C(C)C` (centres unmarked) [3-P07, N-(2-methyl-1-{5H,6H,7H-pyrrolo[2,1-c][1,2,4]triazol-3-yl}propyl)prop-2-enamide]: 52.1%; `C=CC(=O)N(C)CC(=O)NC(C)c1ncc(C)s1` (centres unmarked) [3-I14, N-methyl-N-({[1-(5-methyl-1,3-thiazol-2-yl)ethyl]carbamoyl}methyl)prop-2-enamide]: 69.4%. With `CNS(=O)(=O)c1cc(NC(=O)CCl)ccc1C` [6-M07, 2-chloro-N-[4-methyl-3-(methylsulfamoyl)phenyl]acetamide], the viability at 48 h, 25 µM was determined as 0.859%.

Consider `C=CC(=O)NCCC(=O)N1CC[S+]([O-])C(C)(C)CC1` (centres unmarked) [3-O17, N-[3-(7,7-dimethyl-1-oxo-1lambda4,4-thiazepan-4-yl)-3-oxopropyl]prop-2-enamide], for which the viability at 48 h, 25 µM is 58.5%. Next, `CC(Cl)C(=O)NC(=O)Nc1ccccc1` (centres unmarked) [5-I21, 3-(2-chloropropanoyl)-1-phenylurea]: 92.7%; `CC(CO)N(Cc1ccccc1Cl)C(=O)CCl` (centres unmarked) [6-D17, 2-chloro-N-[(2-chlorophenyl)methyl]-N-(1-hydroxypropan-2-yl)acetamide]: 1.39%; `C=CC(=O)NC(c1ccc(F)cc1)c1nccn1C` (centres unmarked) [2-N09, N-[(4-fluorophenyl)(1-methyl-1H-imidazol-2-yl)methyl]prop-2-enamide]: 45.3%.
